Laboratory results reported in ChEMBL document CHEMBL4706623, “GPR52 Antagonist Reduces Huntingtin Levels and Ameliorates Huntington's Disease-Related Phenotypes” (J Med Chem, 2021).
pIC50: −log10 of the molar value.

Biological target: G-protein coupled receptor 52 (Homo sapiens, UniProt Q9Y2T5)
Experiment: Antagonist activity at GPR52 (unknown origin) expressed in HEK293 cells assessed as inhibition of WO459-induced cAMP accumulation preincubated for 15 mins followed by WO459 addition and measured after 30 mins by LANCE Ultra cAMP kit based microplate reader analysis
Assay type: functional, cell-based
Details: for pIC50: read-out: IC50; call rule not given here

G-protein coupled receptor 52, sequence (Q9Y2T5 whole entry): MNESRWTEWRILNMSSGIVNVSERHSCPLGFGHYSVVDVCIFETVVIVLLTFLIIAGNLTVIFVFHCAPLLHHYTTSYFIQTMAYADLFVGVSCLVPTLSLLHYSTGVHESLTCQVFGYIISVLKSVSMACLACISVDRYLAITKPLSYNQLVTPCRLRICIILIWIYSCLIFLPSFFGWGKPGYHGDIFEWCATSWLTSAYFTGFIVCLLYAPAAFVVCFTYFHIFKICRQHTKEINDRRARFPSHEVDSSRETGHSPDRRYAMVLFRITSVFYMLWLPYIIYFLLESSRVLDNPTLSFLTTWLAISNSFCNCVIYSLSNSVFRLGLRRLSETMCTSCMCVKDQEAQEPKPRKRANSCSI

Compound	pIC50	IC50 (hek293)
O=C(/C=C/CCc1ccccc1)CCc1ccccc1	5.26	–
COc1ccccc1C(=O)/C=C/CCc1ccccc1	5.76	–
O=C(/C=C/CCc1ccccc1Br)c1ccccc1	5.79	–
O=C(/C=C/CCc1ccccc1)c1ccc2ccccc2c1	5.45	–
O=C(/C=C/CCc1ccccc1)c1cccc2ccccc12	5.48	–
Cc1cccc(C(=O)/C=C/CCc2ccccc2)c1	5.59	–
CC/C=C/C(=O)c1ccccc1	–	Not Active
COc1cccc(C(=O)/C=C/CCc2ccccc2)c1	5.83	–
Cc1ccccc1C(=O)/C=C/CCc1ccccc1	5.58	–
O=C(/C=C/CCc1ccccc1)c1ccccc1-c1ccccc1	5.91	–
O=C(/C=C/CCc1ccccc1)c1cccc(-c2ccccc2)c1	5.09	–
O=C(/C=C/CCc1ccccc1)c1cccc(F)c1	5.63	–
